From patent US4410548A, “Propanolamine derivatives” (Reckitt & Colman Products Limited, priority 1980, dated 1983) come the findings set out here.

Counter-ions that a name gives are not always drawn. Like-named read-outs stand apart in the source and are kept apart here.

Data set [1] concerns DOCA hypertensive rats. Kind of data set: toxicity / deaths seen in the antihypertensive test in DOCA rats. The settings on record: oral dose 100 mg/kg. The data set is classed as in vivo, rat. The source says:
(d) With Example B in the antihypertensive test at an oral dose of 100

Data set [2] relates to DOCA hypertensive rats. The experiment in a line: antihypertensive activity (mean arterial blood pressure) after oral administration in DOCA hypertensive rats. The data set is classed as in vivo, rat. The settings on record: for maximal percent changes in MABP: DOCA rats; for MABP, maximum percent changes: Table 2 (in brackets); for MABP, summation of percent changes: Table 2. On the procedure: (b) DOCA = Desoxycorticosterone acetate.
(c) MABP = Mean arterial blood pressure. Negative values represent falls
in blood pressure and conversely positive values increases in blood
pressure. The values of maximum percent changes are mean values taken fro
groups of 5-7 DOCA hypertensive rats.
(d) Values in the final column represent duration of action of the
relative increases and decreases in blood pressure with the respective
treatments. Group mean percent changes are added together for the times o
1, 2, 3 and 5 hours after oral dosage. […]
Values in the final column are summation of percent changes with, in
brackets the maximum percent changes.

The target of the next data set is T1, β-adrenoreceptor (Cavia porcellus, UniProt H0W3H1).
T1 construct: isolated guinea-pig right atria; from tissue; host or cells: isolated guinea-pig right atria
T1 sequence (H0W3H1 1-470): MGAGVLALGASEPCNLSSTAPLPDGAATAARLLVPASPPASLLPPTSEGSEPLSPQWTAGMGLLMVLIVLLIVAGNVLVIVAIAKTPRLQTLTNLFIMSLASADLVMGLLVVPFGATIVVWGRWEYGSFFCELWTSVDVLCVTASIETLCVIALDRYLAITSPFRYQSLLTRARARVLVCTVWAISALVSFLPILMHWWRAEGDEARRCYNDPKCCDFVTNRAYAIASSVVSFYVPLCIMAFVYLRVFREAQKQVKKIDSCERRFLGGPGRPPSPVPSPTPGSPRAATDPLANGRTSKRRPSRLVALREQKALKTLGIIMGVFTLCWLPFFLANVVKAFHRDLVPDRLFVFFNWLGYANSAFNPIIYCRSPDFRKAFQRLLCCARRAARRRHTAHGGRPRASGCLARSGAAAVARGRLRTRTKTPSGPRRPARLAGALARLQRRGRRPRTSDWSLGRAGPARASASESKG
Kind of data set: antagonism of positive chronotropic responses to (-)-isoprenaline in isolated guinea-pig right atria. The settings on record: for times less active than (±)-propranolol / times (±)-propranolol was more potent as an antagonist than the compound: β-adrenoreceptor antagonism in vitro. The data set is classed as cell-based. The source says: Tolamolol is the approved name for 1-[2-(4-carbamoylphenoxy)ethylamino]-3-(2-methylphenoxy)propan-2-ol.
The values in this table are the mean of 4-8

Data set [3] relates to DOCA hypertensive rats. Kind of data set: heart rate in DOCA hypertensive rats after oral administration. The settings on record: both doses (5 and 50 mg/kg).
Setting [4] is: oral dose 50 mg/kg, mean of groups of 5-7, negative = fall.
Where [5] appears, read: oral dose 50 mg/kg, MABP, sum of 1, 2, 3 and 5 hours after dosage.
The mark [6] stands for this setting: oral dose 100 mg/kg, mean of groups of 5-7, negative = fall.
[7] abbreviates: oral dose 100 mg/kg, MABP, sum of 1, 2, 3 and 5 hours after dosage.
Where [8] appears, read: Table 1, isolated guinea-pig atria, mean of 4-8 experiments, read-out: pA2 value against chronotropic responses of isoprenaline (converted).
[9] abbreviates: Table 2, isolated guinea-pig atria vs isoprenaline, read-out: β-Antag. pA2 (converted).

`COc1ccc(OCCNCC(O)COc2ccccc2C)c([S+](C)[O-])c1` (stereo not shown) [Example B]: the “toxicity (MABP column)” value in the data set with DOCA hypertensive rats [1] (Table 2) is reported as “toxic”. Besides, the “deaths of test rats” value in the data set with DOCA hypertensive rats [1] (antihypertensive test) is given as 5 of the 6 test rats died.
For the compound `Cc1ccccc1OCC(O)CNCCOc1ccc(C(N)=O)cc1` (racemic) [(±)-Tolamolol, 1-[2-(4-carbamoylphenoxy)ethylamino]-3-(2-methylphenoxy)propan-2-ol], the “maximal percent changes in MABP” value is listed as -20% in the data set with DOCA hypertensive rats [2] (setting [4]) and -30% with DOCA hypertensive rats [2] (setting [6]). Moreover, the “Summation of percent changes” value in the data set on DOCA hypertensive rats [2] (setting [5]) is given as -47%; with DOCA hypertensive rats [2] (setting [7]), -88%. The “duration of blood pressure effect versus bradycardia” value with DOCA hypertensive rats [2] (oral, (±)-tolamolol) is on record as “of a shorter duration than the bradycardia”. In the data set with DOCA hypertensive rats [2] (oral, (±)-tolamolol), the “effect on blood pressure” value is on record as “falls in blood pressure which were relatively transient”. Also, at β-adrenoreceptor (setting [8]), the Kb is 0.017 µM. Further, the “relative potency as β-adrenoreceptor antagonist” value at β-adrenoreceptor (in vitro, among the compounds of Table 1) was “most potent β-adrenoreceptor antagonists tested in vitro”.
Consider `COc1cc([S+](C)[O-])c(OC)cc1OCCNCC(O)COc1ccccc1C.O=C(O)C(=O)O` (stereo not shown) [Example 10, 1-[2-(2,5-Dimethoxy-4-methylsulphinylphenoxy)ethylamino]-3-(2-methylphenoxy)propan-2-ol oxalate salt], for which, in the data set on DOCA hypertensive rats [2] (setting [6]), the “maximal percent changes in MABP” value is -36%. In addition, the “Summation of percent changes” value with DOCA hypertensive rats [2] (setting [7]) was -131%. Besides, the Kb at β-adrenoreceptor (setting [8]) is 0.0295 µM. Besides, the “times less active than (±)-propranolol” value on β-adrenoreceptor was 1.5 times.
On to `COc1cc([S+](C)[O-])c(C)cc1OCCNCC(O)COc1cccc(C)c1` (stereo not shown) [C], for which, in the data set with DOCA hypertensive rats [2] (oral dose 100 mg/kg), the “MABP, maximum percent changes” value is -8% and the “MABP, summation of percent changes” value was -23%. At β-adrenoreceptor (Table 2, in pA2 column, negative log molar concentration depressing maximum agonist response by 50%, noncompetitive), the “pD'2” value was found to be 4.3. For the same compound, the “nature of interaction with isoprenaline” value on β-adrenoreceptor (adrenoreceptor antagonism test) was “noncompetitive in nature”.
As for `COc1cc(C)c([S+](C)[O-])cc1OCCNCC(O)COc1ccccc1C` (stereo not shown) [A], in the data set with DOCA hypertensive rats [2] (oral dose 100 mg/kg), the “MABP, maximum percent changes” value is reported as -37% and the “MABP, summation of percent changes” value was -127%. For the same compound, the Kb at β-adrenoreceptor (setting [9]) is 3.16 µM.
Consider `CC(C)NCC(O)COc1cccc2ccccc12` (racemic) [(±)-Propranolol], for which the “effect on heart rate” value in the data set with DOCA hypertensive rats [3] is listed as “decreased heart rate”. The “effect on blood pressure” value in the data set on DOCA hypertensive rats [2] (50 mg/kg, p.o.) is recorded as “long-lasting increase in blood pressure”. Moreover, the “maximal percent changes in MABP” value in the data set with DOCA hypertensive rats [2] (oral dose 5 mg/kg, fall, group mean) was -5%; in the data set with DOCA hypertensive rats [2] (oral dose 5 mg/kg, increase, group mean), “+10%”; with DOCA hypertensive rats [2] (setting [4]), “+11%”. Also, the “Summation of percent changes” value with DOCA hypertensive rats [2] (oral dose 5 mg/kg, fall, sum of 1, 2, 3 and 5 hours) is -6%; in the data set with DOCA hypertensive rats [2] (oral dose 5 mg/kg, increase, sum of 1, 2, 3 and 5 hours), “+15%”; in the data set on DOCA hypertensive rats [2] (setting [5]) it was “+38%”. For the same compound, the “effect on mean blood pressure” value in the data set with DOCA hypertensive rats [2] (oral, 5.0 mg/kg) is “small increase in mean blood pressure followed by a non-significant transient fall”.
`COc1cc([S+](C)[O-])c(C)cc1OCCNCC(O)COc1ccc(C)cc1` (stereo not shown) [D]: in the data set with DOCA hypertensive rats [2] (oral dose 100 mg/kg), the “MABP, maximum percent changes” value is listed as -23% and the “MABP, summation of percent changes” value is listed as -82%. The Kb at β-adrenoreceptor (setting [9]) is 1.17 µM.
As for `COc1cc2c(cc1OCCNCC(O)COc1ccccc1C)CCCC[S+]2[O-]` (stereo not shown) [Example 8, 1-[2-(8-Methoxy-2,3,4,5-tetrahydro-1-benzothiepin-7-oxy)ethylamino]-3-(2-methylphenoxy)propan-2-ol S-oxide oxalate salt], the “maximal percent changes in MABP” value with DOCA hypertensive rats [2] (setting [6]) is -43%. Further, the “Summation of percent changes” value with DOCA hypertensive rats [2] (setting [7]) is reported as -161%. At β-adrenoreceptor (setting [8]), the Kb is 0.0288 µM. For the same compound, the “times less active than (±)-propranolol” value on β-adrenoreceptor was found to be 1.5 times.
In the case of `COc1cc(S(C)(=O)=O)c(C)cc1OCCNCC(O)COc1ccccc1.O=C(O)C(=O)O` (stereo not shown) [Example 6, 1-[2-(2-Methoxy-5-methyl-4-methylsulphonylphenoxy)ethylamino]-3-phenoxypropan-2-ol oxalate salt], the “maximal percent changes in MABP” value in the data set on DOCA hypertensive rats [2] (setting [6]) was -35%. Besides, in the data set on DOCA hypertensive rats [2] (setting [7]), the “Summation of percent changes” value was -127%. Moreover, the Kb at β-adrenoreceptor (setting [8]) is 0.191 µM. Further, the “times (±)-propranolol was more potent as an antagonist than the compound” value at β-adrenoreceptor is “approximately 10 times”.
On to `COc1cc([S+](C)[O-])c(C)cc1OCCNCC(O)COc1ccccc1C.O=C(O)C(=O)O` (stereo not shown) [Example 1, 1-[2-(2-Methoxy-5-methyl-4-methylsulphinylphenoxy)ethylamino]-3-(2-methylphenoxy)propan-2-ol oxalate salt], for which, in the data set on DOCA hypertensive rats [2] (oral dose 100 mg/kg), the “MABP, maximum percent changes” value is -47%. In addition, the “MABP, summation of percent changes” value with DOCA hypertensive rats [2] (oral dose 100 mg/kg) is listed as -170%. Moreover, the “maximal percent changes in MABP” value with DOCA hypertensive rats [2] (setting [4]) is -37%; in the data set on DOCA hypertensive rats [2] (setting [6]) it was -47%. The “Summation of percent changes” value was -137% in the data set on DOCA hypertensive rats [2] (setting [5]) and -170% in the data set with DOCA hypertensive rats [2] (setting [7]). Moreover, on β-adrenoreceptor (setting [8]), the Kb was 0.38 µM. Also, the “times (±)-propranolol was more potent as an antagonist than the compound” value on β-adrenoreceptor is around 20 times.
